Experimental findings from PMC12596731, “Cys–Lys stapling for unprotected peptides via tunable linkers” (National Science Review, 2025) are described below.

Data set [1] can be described thus: Serum stability study in Foetal Bovine Serum. The conditions noted are these: 300 µL of 1 mg/mL peptide in deionized water + 300 µL Foetal Bovine Serum, 37 °C, CH3CN precipitation, RP-HPLC peak area of intact peptide.
Method: The peptide of interest (300 µ L of 1 mg/mL stock solution in deionized water) was added to 300 µ L of
Foetal Bovine Serum and incubated at 37° C in an incubator. At each time point, an aliquot of 50 µ L was
drawn and an equal volume of ice-chilled CH3CN was added to the aliquot to precipitate serum proteins.
The cloudy mixture was centrifuged at 12,000 rpm for 10 min and then supernatant was removed. The
level of degradation was determined by the integration of the area under the RP-HPLC peak
corresponding to the intact peptide.
Before testing the serum stability, the standard curve (the relationship between concentration and peak
area) was established by RP-HPLC for CP-9 and TR-12 and QN-16 and 5h and 5o and 5w.
shift their retention times later.
The subject of data set [2] is human bladder cancer cells. In kind it is cell-based. The following applies: 48 h. The method, then:
XI. Biological Experiments
Cell Counting Kit (CCK-8) was used to evaluate the proliferation inhibition activity of the compounds, and the half inhibitory concentration IC50 value was determined by single-concentration primary screening and multi-concentration.
Fetal Bovine Serum (FBS) 04-001-1acs, Biological industries; PBS phosphate buffer (PB180327), penicillin-streptomycin sulfate double resistant mixture (100× ) […]
Leibovitz's L-15 medium (PM151010), Wuhan Punosai Life Technology Co., LTD.
CCK-8 Kit, Biosharp life sciences; Trypsin-edta Digestive Solution (05200-056), GIBCO; Cellular DMSO (D2650 -100ML), SIGMA; 96-well cell culture plate, Corning Life Sciences (Wujiang) Co., LTD. 25, 75cm2 cell culture bottle, Corning Life Sciences (Wujiang) Co., LTD. Blood cell counting plate, Shanghai Qiujing Biochemical Reagent Instrument Co., LTD. Cisplatin (D8810), Solarbio life sciences;
Instruments and equipment
Super clean workbench (sw-cj-2fd), Sujing Aetna; Microscope (nib -100), Ningbo Yongxin Optical Co., Ltd; Carbon dioxide cell incubator (MCO -18AC), Phcbi; Electric constant temperature water bath pot (HWS -24), Shanghai Yiheng Technology Co., Ltd; Multifunctional microplate reader (Multiskan MK3), Thermo; One ten-thousandth balance (MS105DU), METTLER; Centrifuge (TD4N), ChangshaYingtai Instrument Co., Ltd; Mixer (SCI-VS), Selo Czech Republic, USA.
The samples were dissolved in the cell -grade DMSO after accurately weighing to generate the 10 mM drug solution. The drug solution was further diluted to tenfold detection concentration by cell culture medium.
Standard Operation Procedure
Detection principle of cytotoxicity (CCK -8 method):
The detection principle is that the CCK-8 reagent contains WST-8, which is reduced S52 to a highly water-soluble yellow methyl product (formazan) by dehydrogenase in the cell mitochondria under the action of electron carrier 1-methoxy-5-methylphenazine dimethyl sulfate (1-methoxy PMS). The number of the nail products produced is directly proportional to the number of living cells.
(1) Inoculate cells: The cells were prepared into single cell suspension with the culture medium containing 10% fetal bovine serum, and the 96 well plates were inoculated with 90 uL cell culture medium (Adherent cell viewed 5×10^4/mL and Suspension cell viewed 9×10^4/mL) per well, then cultured at 5% CO2 and 37 ℃ for 24 hours.
(2) Add the sample solution to be tested: Add 10 µL sample solution to each well. One concentration was set for each sample during preliminary screening and three multiple holes were set for each concentration. Eight concentration gradients were set for each sample for IC50 determination and three multiple holes were set for each concentration.
The 96 well plates were cultured at 5% CO2 and 37 ℃ for 48 hours. The experiment was divided into a blank group, control group and drug group.
(3) Color development: The old culture medium and drug solution of adherent cells were sucked out, then 100 µL of CCK-8 solution (diluted ten times with the basic medium) was added and the suspension cells were directly added 10 µL of CCK-8 stock solution. Culture at 37 ℃ with 5% CO2 for 1-4 h (dark operation, real-time observation).
(4) Result detection: The absorbance was measured at 450 nm with an enzyme labeling instrument and the original data and results were recorded.
(5) The toxicity is expressed by cell inhibition, and the calculation formula is as follows:
Cell inhibition (%) = (ODControl-ODDrug) / (ODControl-ODBlank)×100%. The IC50 was calculated by the software graphpad prism 8 (version 8.0.2, from GraphPad SoftwareInc)，and the experimental results are expressed in ± SD.
6) Positive control: Cisplatin.

Data set [3] can be described thus: Circular dichroism measurement of α-helicity. It is filed as physicochemical. The conditions noted are these: 40% TFE/H2O, 0.05 mM peptide, room temperature, path length 1 mm, 180-260 nm, average of at least 3 values. The protocol: VIII. Circular Dichroism Measurements.[22]
General Procedure for the measurement of CD spectra were mensurated at a wavelength ranging from 180 to 260 nm, with a path length of 1mm and a scanning speed of 200 nm/min at room temperature on the J-1500 (Jasco, Japan) spectropolarimeter. The lyophilized solid linear and staple peptides were dissolved in deionized water (bubbled with nitrogen for 30 minutes) to afford a 1 mM solution. The 1 mM stock solution was diluted with six different solvent systems (H2O, 5%, 10%, 20%, 30%, 40% TFE/H2O) to afford 0.05 mM solutions. The data described is the average of at least 3 values. The mean peptide ellipticity [θ] was calculated using equation (1) and plotted against […]
θ: ellipticity [mdeg], C: peptide molar concentration [M], Np: number of peptide units, l: cell path length [cm].[6]
Figure S20: The CD spectroscopy of 5y was measured in six different solvent systems Through the above data, we obviously saw that the stapled peptide 5y had the best helicity (34.7%) in 40% solution of TFE/H2O, and then we conducted CD test on the active peptide QN-16 before and after stapling.
For orientation: CD spectra are sensitive to the conformation of chiral molecules.

The test system of data set [4] is chymotrypsin. Description: Proteolysis assay with chymotrypsin. It is filed as in vitro ADME. The conditions noted are these: chymotrypsin solution, 500 µL of 500 µM peptide in phosphate buffer pH 7.4 + 10 µL chymotrypsin 100 µg/mL, 37 °C, HPLC integration relative to starting peptide, read-out: peptide degraded under chymotrypsin for 1.5 h. The protocol: IX. Proteolysis assays.
500 µL of peptide TR-12 (500 µM, 2 µL DMSO was added to help solubilization) in phosphate buffer (pH 7.4) was mixed and incubated with 10 µL of the protease solution (Chymotrypsin – 100 µg/mL) at 37 ℃. At 0, 10, 20 , 40, 60, 90 minutes, aliquots of 50 µL were quenched with 50 µL of 1% TFA solution in MeCN respectively and subjected to HPLC analysis. Peptide concentrations at different time points were quantified by integration of the HPLC trace relative to the starting […]
500 µL of peptide 5o (500 µM, 2 µL DMSO was added to help solubilization) in phosphate buffer (pH 7.4) was mixed and incubated with
Table S2. Proteolytic assays of peptide TR-12 and 5o with chymotrypsin.
Time/Peak area 0 min 10 min 20 min 40 min 60 min 90 min

The nature of data set [5]: Cys-Lys stapling of unprotected peptides with unsymmetrical linker (1.5 equiv): Cys thiol displaces phthalimide from N-thiophthalimide (disulfide, ~1 min), then ring closure by Lys amine attack on pentafluorophenyl ester with DIPEA (4 equiv). The following applies: the molecule shown is the open-chain precursor, CH3CN:H2O 3:1, 25.0 °C, 0.167 h.

In general, IC50 refers to the concentration needed to halve the response being measured.

Turning to Ac-CPIMEDRKP-NH2 [CP-9], the “time for complete degradation in bovine serum” value in data set [1] is listed as at most 5 h. Take `CC(=O)N[C@H](C(=O)N[C@@H](CO)C(=O)N[C@@H](Cc1ccccc1)C(=O)N[C@H]1CCCCNC(=O)c2cccc(c2)OCC/C(Cl)=C\SSC[C@@H](C(=O)N[C@@H](CC(C)C)C(=O)N[C@@H](CC(C)C)C(=O)N[C@@H](CO)C(=O)N[C@@H](CCCNC(=N)N)C(N)=O)NC(=O)[C@H](Cc2c[nH]c3ccccc23)NC(=O)[C@H](Cc2ccc(O)cc2)NC(=O)[C@H](CCC(N)=O)NC1=O)[C@@H](C)O` [Peptide 5q]: the half-maximal inhibitory concentration (IC50) in data set [2] was 22.4 µM. Take `CC(=O)N[C@H](C(=O)N[C@@H](CO)C(=O)N[C@@H](Cc1ccccc1)C(=O)N[C@H]1CCCCNC(=O)CCC/C(=C\Cl)SSC[C@@H](C(=O)N[C@@H](CC(C)C)C(=O)N[C@@H](CC(C)C)C(=O)N[C@@H](CO)C(=O)N[C@@H](CCCNC(=N)N)C(N)=O)NC(=O)[C@H](Cc2c[nH]c3ccccc23)NC(=O)[C@H](Cc2ccc(O)cc2)NC(=O)[C@H](CCC(N)=O)NC1=O)[C@@H](C)O` [Peptide 5l]: in data set [3], the “Helicity (α-helicity by CD)” value is listed as 81.4%. The concentration for half-maximal inhibition (IC50) in data set [2] came to 14.7 µM. Take “Ac-QSQQTFCNLWRLLKQN-NH2 (also: sidechain bridge or staple (positions not given here)) [Peptide 5v, QN-16 stapled with reagent 3d]”: the “Helicity (α-helicity by CD)” value in data set [3] is listed as 60.8%. Consider `CC(=O)N[C@H](C(=O)N[C@@H](CO)C(=O)N[C@@H](Cc1ccccc1)C(=O)N[C@H]1CCCCNC(=O)CC/C(=C\Cl)SSC[C@@H](C(=O)N[C@@H](CC(C)C)C(=O)N[C@@H](CC(C)C)C(=O)N[C@@H](CO)C(=O)N[C@@H](CCCNC(=N)N)C(N)=O)NC(=O)[C@H](Cc2c[nH]c3ccccc23)NC(=O)[C@H](Cc2ccc(O)cc2)NC(=O)[C@H](CCC(N)=O)NC1=O)[C@@H](C)O` [Peptide 5k], for which 14.6 µM corresponded to half-maximal inhibition in data set [2] (IC50). On to Ac-QSQQTFCNLWRLLKQN-NH2 [QN-16], for which, in data set [3], the “Helicity (α-helicity by CD)” value was determined as 30.3%. `CC(=O)N[C@H](C(=O)N[C@@H](CO)C(=O)N[C@@H](Cc1ccccc1)C(=O)N[C@H]1CCCCNC(=O)CCCC/C(=C\Cl)SSC[C@@H](C(=O)N[C@@H](CC(C)C)C(=O)N[C@@H](CC(C)C)C(=O)N[C@@H](CO)C(=O)N[C@@H](CCCNC(=N)N)C(N)=O)NC(=O)[C@H](Cc2c[nH]c3ccccc23)NC(=O)[C@H](Cc2ccc(O)cc2)NC(=O)[C@H](CCC(N)=O)NC1=O)[C@@H](C)O` [Peptide 5o]: the metabolised at 1.5 h, 490 µM in data set [4] was found to be 43%. The compound further returned an IC50 in data set [2] of 8.55 µM.

For `CC(=O)N[C@H](C(=O)N[C@@H](CO)C(=O)N[C@@H](Cc1ccccc1)C(=O)N[C@H]1CCCCNC(=O)COC/C(Cl)=C\SSC[C@@H](C(=O)N[C@@H](CC(C)C)C(=O)N[C@@H](CC(C)C)C(=O)N[C@@H](CO)C(=O)N[C@@H](CCCNC(=N)N)C(N)=O)NC(=O)[C@H](Cc2c[nH]c3ccccc23)NC(=O)[C@H](Cc2ccc(O)cc2)NC(=O)[C@H](CCC(N)=O)NC1=O)[C@@H](C)O` [Peptide 5m], it took 21.7 µM to reach half-maximal inhibition in data set [2] (IC50). `CC(=O)N[C@H](C(=O)N[C@@H](CO)C(=O)N[C@@H](Cc1ccccc1)C(=O)N[C@H]1CCCCNC(=O)c2ccccc2OCC/C(Cl)=C\SSC[C@@H](C(=O)N[C@@H](CC(C)C)C(=O)N[C@@H](CC(C)C)C(=O)N[C@@H](CO)C(=O)N[C@@H](CCCNC(=N)N)C(N)=O)NC(=O)[C@H](Cc2c[nH]c3ccccc23)NC(=O)[C@H](Cc2ccc(O)cc2)NC(=O)[C@H](CCC(N)=O)NC1=O)[C@@H](C)O` [Peptide 5p] had an IC50 in data set [2] of 14.9 µM. As to “Ac-QSQQTFCNLWRLLKQN-NH2 (also: sidechain bridge or staple (positions not given here)) [Peptide 5y, QN-16 stapled with reagent 3m]”, in data set [3], the “Helicity (α-helicity by CD)” value amounted to 34.7%.

As for `CC(=O)N[C@H](C(=O)N[C@@H](CO)C(=O)N[C@@H](Cc1ccccc1)C(=O)N[C@@H](CCCCN)C(=O)N[C@@H](CCC(N)=O)C(=O)N[C@@H](Cc1ccc(O)cc1)C(=O)N[C@@H](Cc1c[nH]c2ccccc12)C(=O)N[C@@H](CS)C(=O)N[C@@H](CC(C)C)C(=O)N[C@@H](CC(C)C)C(=O)N[C@@H](CO)C(=O)N[C@@H](CCCNC(=N)N)C(N)=O)[C@@H](C)O` [TR-12], the metabolised at 1.5 h, 490 µM in data set [4] is 90%. Further, the “time for complete degradation in bovine serum” value in data set [1] is listed as at most 2 h. For the same compound, in data set [3], the “Helicity (α-helicity by CD)” value is reported as 44.7%. Also, half-maximal inhibition in data set [2] (IC50) required 16.2 µM. Consider `CC(=O)N[C@@H](CCC(N)=O)C(=O)N[C@@H](CO)C(=O)N[C@@H](CCC(N)=O)C(=O)N[C@@H](CCC(N)=O)C(=O)N[C@H](C(=O)N[C@@H](Cc1ccccc1)C(=O)N[C@@H](CSS/C(=C/Cl)CCOc1ccc(C(=O)Oc2c(F)c(F)c(F)c(F)c2F)cc1)C(=O)N[C@@H](CC(N)=O)C(=O)N[C@@H](CC(C)C)C(=O)N[C@@H](Cc1c[nH]c2ccccc12)C(=O)N[C@@H](CCCNC(=N)N)C(=O)N[C@@H](CC(C)C)C(=O)N[C@@H](CC(C)C)C(=O)N[C@@H](CCCCN)C(=O)N[C@@H](CCC(N)=O)C(=O)N[C@@H](CC(N)=O)C(N)=O)[C@@H](C)O`, for which the ring closure, isolated yield in data set [5] (39-membered ring) came to 68%. On to `CC[C@H](C)[C@H](NC(=O)[C@@H]1CCCN1C(=O)[C@H](CSS/C(=C/Cl)CCCCCC(=O)Oc1c(F)c(F)c(F)c(F)c1F)NC(C)=O)C(=O)N[C@@H](CCSC)C(=O)N[C@@H](CCC(=O)O)C(=O)N[C@@H](CC(=O)O)C(=O)N[C@@H](CCCNC(=N)N)C(=O)N[C@@H](CCCCN)C(=O)N1CCC[C@H]1C(N)=O` [Ac-Cys(S-linker 3d-OPfp)-Pro-Ile-Met-Glu-Asp-Arg-Lys-Pro-NH2], for which the ring closure, isolated yield in data set [5] (37-membered ring) is 78%.
